Data as given in US7304074B2, “Substituted 1,5-naphthyridine azolinones” (Hoffmann-La Roche Inc., priority 2005, dated 2007).

What was measured:
Format in all cases: biochemical
[1] = biological target: CDK4 (Homo sapiens, UniProt P11802); experiment: CDK4 kinase inhibition (selectivity)
[2] = biological target: CDK1/Cyclin B (Homo sapiens, UniProt P06493); experiment: CDK1/Cyclin B kinase assay (FlashPlate or HTRF); details: recombinant human CDK1/Cyclin B, Rb substrate; Ki=IC50/(1+[S]/Km)
Description: To determine inhibition of CDK1 activity, either FlashPlate™ (NEN™-Life Science Products) assay or HTRF assay was performed. Both types of kinase assays were carried out using recombinant human CDK1/Cyclin B complex. GST-cyclinB (GST-cycB) and CDK1 cDNA clones in baculovirus vectors were provided by Dr. W. Harper at the Baylor College of Medicine, Houston, Tex. Proteins were co-expressed in High Five™ insect cells and the complex was purified on glutathione Sepharose resin (Pharmacia, Piscataway, N.J.) as previously described (Harper, J. W. et al. Cell 1993, 75, 805-816). A 6×-Histidine tagged truncated form of retinoblastoma (Rb) protein (amino acid 386-928) was used as the substrate for the CDK1/Cyclin B assay (the expression plasmid was provided by Dr. Veronica Sullivan, Department of Molecular Virology, Roche Research Centre, Welwyn Garden City, United Kingdom). The Rb protein is a natural substrate for phosphorylation by CDK1 (see Herwig and Strauss Eur. J. Biochem. Vol. 246 (1997) pp. 581-601 and the references cited therein). The expression of the 62 Kd protein was under the control of an IPTG inducible promoter in an M15 E. coli strain. Cells were lysed by sonication and purification was carried out by binding lysates at pH 8.0 to a Ni-chelated agarose column pretreated with 1 mM imidazole. The resin was then washed several times with incrementally decreasing pH buffers to pH 6.0, and eluted with 500 mM imidazole. Eluted protein was dialysed against 20 mM HEPES pH 7.5, 30% glycerol, 200 mM NaCl, and 1 mM DTT. Purified Rb fusion protein stocks were quantitated for protein concentration, aliquoted, and stored at −70° C.
For the FlashPlate kinase assay, 96-well FlashPlates were coated with Rb protein at 10 μg/ml, using 100 μl per well. Plates were incubated at 4° C. overnight or at room temperature for 3 hours on a shaker. To control for nonspecific phosphorylation, one row of wells was coated with 100 μl/well coating buffer (20 mM HEPES, 0.2 M NaCl). Plates were then washed twice with wash buffer (0.01% Tween 20 in phosphate-buffered saline). Compounds to be tested (“test compounds”) were added to the wells at 5×final concentration. Reactions were initiated by immediate addition of 40 μl reaction mix (25 mM HEPES, 20 mM MgCl2, 0.002% Tween 20, 2 mM DTT, 1 μM ATP, 3.3 nM 33P-ATP) and a sufficient amount of enzyme to give counts that were at least 10-fold above background. Plates were incubated at room temperature on a shaker for 30 minutes. Plates were washed four times with the wash buffer, sealed, and counted on the TopCount scintillation counter (Packard Instrument Co., Downers Grove, Ill.). The percent inhibition of Rb phosphorylation, which is a measure of the inhibition of CDK1 activity, was determined according to the following formula:
[formula] where “test compound” refers to the average counts per minute of the test duplicates, “nonspecific” refers to the average counts per minute when no CDK1/Cyclin B, etc., was added, and “total” refers to the average counts per minute when no compound was added. […] The value of the inhibitor constant Ki is calculated by the following: Ki=IC50/(1+[S]/Km), where [S] is the ATP concentration and Km is Michaelis constant.
The Homogeneous Time Resolved Fluorescence (HTRF) kinase assay was carried out in 96-well polypropylene plates (BD Biosciences, Bedford, Mass.). […]

[3] = biological target: CDK2 (Homo sapiens, UniProt P24941); experiment: CDK2 kinase inhibition (selectivity)

CDK4, sequence (P11802 whole entry, species assumed): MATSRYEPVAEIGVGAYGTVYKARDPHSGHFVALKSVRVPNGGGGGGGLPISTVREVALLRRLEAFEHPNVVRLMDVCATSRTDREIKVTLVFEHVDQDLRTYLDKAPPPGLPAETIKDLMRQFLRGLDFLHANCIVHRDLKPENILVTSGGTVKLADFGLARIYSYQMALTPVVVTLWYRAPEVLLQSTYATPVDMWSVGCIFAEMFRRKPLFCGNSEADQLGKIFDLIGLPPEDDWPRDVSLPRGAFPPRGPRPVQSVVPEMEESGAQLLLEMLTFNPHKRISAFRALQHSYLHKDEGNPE
CDK4, sequence (P24385 whole entry partner, species assumed): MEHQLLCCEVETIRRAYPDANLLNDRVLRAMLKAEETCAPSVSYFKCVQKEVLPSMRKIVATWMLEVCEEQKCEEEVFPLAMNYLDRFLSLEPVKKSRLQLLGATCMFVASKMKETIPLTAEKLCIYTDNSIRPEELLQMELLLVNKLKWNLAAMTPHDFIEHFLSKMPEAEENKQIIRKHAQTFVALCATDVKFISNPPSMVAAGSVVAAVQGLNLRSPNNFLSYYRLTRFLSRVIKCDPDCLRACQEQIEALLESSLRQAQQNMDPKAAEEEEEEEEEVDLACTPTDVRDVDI
CDK1/Cyclin B, sequence (P06493 whole entry, the tested form may be a part): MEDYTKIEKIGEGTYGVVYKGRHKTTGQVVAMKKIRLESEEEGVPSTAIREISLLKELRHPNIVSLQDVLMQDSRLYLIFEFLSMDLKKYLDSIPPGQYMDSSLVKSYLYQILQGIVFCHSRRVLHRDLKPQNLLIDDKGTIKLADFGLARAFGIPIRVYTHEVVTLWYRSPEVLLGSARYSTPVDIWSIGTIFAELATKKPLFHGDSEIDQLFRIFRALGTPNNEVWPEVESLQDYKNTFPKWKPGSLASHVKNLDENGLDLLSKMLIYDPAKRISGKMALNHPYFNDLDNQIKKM
CDK1/Cyclin B, sequence (P14635 whole entry partner, the tested form may be a part): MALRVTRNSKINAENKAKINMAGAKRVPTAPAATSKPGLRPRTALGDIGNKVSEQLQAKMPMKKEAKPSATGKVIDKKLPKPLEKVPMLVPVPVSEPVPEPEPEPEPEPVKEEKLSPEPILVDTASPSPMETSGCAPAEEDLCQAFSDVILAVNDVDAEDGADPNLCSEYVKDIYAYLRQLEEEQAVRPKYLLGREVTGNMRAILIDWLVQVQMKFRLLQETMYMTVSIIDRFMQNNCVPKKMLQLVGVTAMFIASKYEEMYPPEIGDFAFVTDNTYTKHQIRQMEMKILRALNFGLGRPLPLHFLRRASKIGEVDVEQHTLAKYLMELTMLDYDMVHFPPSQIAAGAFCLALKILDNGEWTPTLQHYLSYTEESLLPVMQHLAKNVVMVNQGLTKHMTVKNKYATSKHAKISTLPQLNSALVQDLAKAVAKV

Row | Structure (SMILES) | Ki [1] [µM] | Ki [2] [nM] | Ki [3] [nM]
1 | CC(C)Oc1c(C#N)cnc2ccc(/C=C3\SC(N)=NC3=O)nc12 [Example 1, 6-(2-Amino-4-oxo-4H-thiazol-5-ylidenemethyl)-4-isopropoxy-[1,5]naphthyridine-3-carbonitrile] | > 10 | 8 | 18
2 | Cc1cccc(Cl)c1CNC1=NC(=O)/C(=C/c2ccc3ncc(C#N)cc3n2)S1 [Example 17, 6-[2-(2-Chloro-6-methyl-benzylamino)-4-oxo-4H-thiazol-5-ylidenemethyl]-[1,5]naphthyridine-3-carbonitrile] |  | 539 | > 10000
3 | CC(C)Oc1c(C#N)cnc2ccc(/C=C3\SC(NCc4cccs4)=NC3=O)nc12 [Example 4, 4-Isopropoxy-6-{4-oxo-2-[(thiophen-2-ylmethyl)-amino]-4H-thiazol-5-ylidenemethyl}-[1,5]naphthyridine-3-carbonitrile] | > 10 | 47 | 554
4 | CC(C)Oc1c(C#N)cnc2ccc(/C=C3\SC(NCc4ccccc4Cl)=NC3=O)nc12 [Example 2] | > 10 | 150 | 610
5 | CC(C)Oc1c(C#N)cnc2ccc(/C=C3\SC(N[C@@H]4C[C@H]4c4ccccc4)=NC3=O)nc12 [Example 3, 4-Isopropoxy-6-[4-oxo-2-(2-phenyl-cyclopropylamino)-4H-thiazol-5-ylidenemethyl]-[1,5]naphthyridine-3-carbonitrile] | > 10 | 78 | 351
